The subject of the first experiment is PC-14. Kind of experiment: relative viability (nuclei count vs DMSO), 5 days (fraction); higher = more cells survive. As to conditions: first compound 8 µM. The procedure, abridged: (§1)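 Lung cancer cell lines in 1536-well plates got either a single drug or a fixed anchor-drug dose together with five library-drug doses (not always all listed) in √10 steps, by pin tool, on the day after seeding. Nuclei were counted after 5 days, and relative viability is the treated-to-vehicle ratio of nuclei counts. Values are medians of duplicate plates.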
In the case of `CCCCCCCCCCCC1=C(O)C(=O)C=C(O)C1=O` [Embelin] + COc1cccc2cc(-c3nc([C@H]4CC[C@H](C(=O)O)CC4)n4ncnc(N)c34)[nH]c12 [OSI-027] (partner 0.5 µM), the relative viability was found to be 0.848.
Still for that read-out and setting: then `CCCCCCCCCCCC1=C(O)C(=O)C=C(O)C1=O` [Embelin] + Nc1nc2[nH]cc(CCc3ccc(C(=O)N[C@@H](CCC(=O)O)C(=O)O)cc3)c2c(=O)[nH]1 [Pemetrexed] (partner 0.2 µM), with 0.153.

The test system of a further experiment is PC-3 [JPC-3]. The description is as above. The note with it: first compound 0.08 µM. The method, boiled down:
as §1
On to `CCCCCCCCCCCC1=C(O)C(=O)C=C(O)C1=O` [Embelin] + N=C(N)NC(=N)NCCc1ccccc1 [Phenformin] (partner 250 µM), for which the relative viability came to 0.475.
The same measure, in the same setting: then `CCCCCCCCCCCC1=C(O)C(=O)C=C(O)C1=O` [Embelin] + CCNC(=O)c1noc(-c2cc(C(C)C)c(O)cc2O)c1-c1ccc(CN2CCOCC2)cc1 [Luminespib] (partner 0.01 µM), with 0.798.
Same read-out and setting: the value for `CCCCCCCCCCCC1=C(O)C(=O)C=C(O)C1=O` [Embelin] + Cc1nc(Nc2ncc(C(=O)Nc3c(C)cccc3Cl)s2)cc(N2CCN(CCO)CC2)n1 [Dasatinib] (partner 0.075 µM) was 1.02; that for `CCCCCCCCCCCC1=C(O)C(=O)C=C(O)C1=O` [Embelin] + COc1cccc2cc(-c3nc([C@H]4CC[C@H](C(=O)O)CC4)n4ncnc(N)c34)[nH]c12 [OSI-027] (partner 0.5 µM) was 0.759; that for `CCCCCCCCCCCC1=C(O)C(=O)C=C(O)C1=O` [Embelin] + Nc1nc2[nH]cc(CCc3ccc(C(=O)N[C@@H](CCC(=O)O)C(=O)O)cc3)c2c(=O)[nH]1 [Pemetrexed] (partner 0.2 µM) was 1.04.

Still in this experiment, the particulars now being: first compound 0.8 µM.
The compound `CCCCCCCCCCCC1=C(O)C(=O)C=C(O)C1=O` [Embelin] + N=C(N)NC(=N)NCCc1ccccc1 [Phenformin] (partner 250 µM) displayed a relative viability of 0.476.
The compound `CCCCCCCCCCCC1=C(O)C(=O)C=C(O)C1=O` [Embelin] + CCNC(=O)c1noc(-c2cc(C(C)C)c(O)cc2O)c1-c1ccc(CN2CCOCC2)cc1 [Luminespib] (partner 0.01 µM) returned a relative viability of 0.752.
Same read-out and setting: the value for `CCCCCCCCCCCC1=C(O)C(=O)C=C(O)C1=O` [Embelin] + Cc1nc(Nc2ncc(C(=O)Nc3c(C)cccc3Cl)s2)cc(N2CCN(CCO)CC2)n1 [Dasatinib] (partner 0.075 µM) was 1.05; that for `CCCCCCCCCCCC1=C(O)C(=O)C=C(O)C1=O` [Embelin] + COc1cccc2cc(-c3nc([C@H]4CC[C@H](C(=O)O)CC4)n4ncnc(N)c34)[nH]c12 [OSI-027] (partner 0.5 µM) was 0.752; that for `CCCCCCCCCCCC1=C(O)C(=O)C=C(O)C1=O` [Embelin] + Nc1nc2[nH]cc(CCc3ccc(C(=O)N[C@@H](CCC(=O)O)C(=O)O)cc3)c2c(=O)[nH]1 [Pemetrexed] (partner 0.2 µM) was 1.17.

Staying with this experiment, now noted: first compound 2.53 µM.
As for `CCCCCCCCCCCC1=C(O)C(=O)C=C(O)C1=O` [Embelin] + N=C(N)NC(=N)NCCc1ccccc1 [Phenformin] (partner 250 µM), the relative viability is 0.477.
With `CCCCCCCCCCCC1=C(O)C(=O)C=C(O)C1=O` [Embelin] + CCNC(=O)c1noc(-c2cc(C(C)C)c(O)cc2O)c1-c1ccc(CN2CCOCC2)cc1 [Luminespib] (partner 0.01 µM), the relative viability is 0.724.
On the same count and under the same terms, then `CCCCCCCCCCCC1=C(O)C(=O)C=C(O)C1=O` [Embelin] + Cc1nc(Nc2ncc(C(=O)Nc3c(C)cccc3Cl)s2)cc(N2CCN(CCO)CC2)n1 [Dasatinib] (partner 0.075 µM), with 1.12; and `CCCCCCCCCCCC1=C(O)C(=O)C=C(O)C1=O` [Embelin] + COc1cccc2cc(-c3nc([C@H]4CC[C@H](C(=O)O)CC4)n4ncnc(N)c34)[nH]c12 [OSI-027] (partner 0.5 µM), with 0.829.
Still for that read-out and setting: the value for `CCCCCCCCCCCC1=C(O)C(=O)C=C(O)C1=O` [Embelin] + Nc1nc2[nH]cc(CCc3ccc(C(=O)N[C@@H](CCC(=O)O)C(=O)O)cc3)c2c(=O)[nH]1 [Pemetrexed] (partner 0.2 µM) was 1.07.

Staying with this experiment, now noted: first compound 8 µM.
As to `CCCCCCCCCCCC1=C(O)C(=O)C=C(O)C1=O` [Embelin] + N=C(N)NC(=N)NCCc1ccccc1 [Phenformin] (partner 250 µM), the relative viability turned out to be 0.477.
With `CCCCCCCCCCCC1=C(O)C(=O)C=C(O)C1=O` [Embelin] + CCNC(=O)c1noc(-c2cc(C(C)C)c(O)cc2O)c1-c1ccc(CN2CCOCC2)cc1 [Luminespib] (partner 0.01 µM), the relative viability came to 0.599.
On to `CCCCCCCCCCCC1=C(O)C(=O)C=C(O)C1=O` [Embelin] + Cc1nc(Nc2ncc(C(=O)Nc3c(C)cccc3Cl)s2)cc(N2CCN(CCO)CC2)n1 [Dasatinib] (partner 0.075 µM), for which the relative viability was 0.966.
Same read-out and setting: then `CCCCCCCCCCCC1=C(O)C(=O)C=C(O)C1=O` [Embelin] + COc1cccc2cc(-c3nc([C@H]4CC[C@H](C(=O)O)CC4)n4ncnc(N)c34)[nH]c12 [OSI-027] (partner 0.5 µM), with 0.867; and `CCCCCCCCCCCC1=C(O)C(=O)C=C(O)C1=O` [Embelin] + Nc1nc2[nH]cc(CCc3ccc(C(=O)N[C@@H](CCC(=O)O)C(=O)O)cc3)c2c(=O)[nH]1 [Pemetrexed] (partner 0.2 µM), with 0.634.

Another experiment relates to SK-LU-1. The experiment is described as above. The note with it: first compound 0.08 µM. The procedure, abridged:
as §1
With `CCCCCCCCCCCC1=C(O)C(=O)C=C(O)C1=O` [Embelin] + N=C(N)NC(=N)NCCc1ccccc1 [Phenformin] (partner 250 µM), the relative viability turned out to be 0.608.
The compound `CCCCCCCCCCCC1=C(O)C(=O)C=C(O)C1=O` [Embelin] + CCNC(=O)c1noc(-c2cc(C(C)C)c(O)cc2O)c1-c1ccc(CN2CCOCC2)cc1 [Luminespib] (partner 0.01 µM) displayed a relative viability of 0.206.
On to `CCCCCCCCCCCC1=C(O)C(=O)C=C(O)C1=O` [Embelin] + Cc1nc(Nc2ncc(C(=O)Nc3c(C)cccc3Cl)s2)cc(N2CCN(CCO)CC2)n1 [Dasatinib] (partner 0.075 µM), for which the relative viability amounted to 0.192.
On the same count and under the same terms, then `CCCCCCCCCCCC1=C(O)C(=O)C=C(O)C1=O` [Embelin] + COc1cccc2cc(-c3nc([C@H]4CC[C@H](C(=O)O)CC4)n4ncnc(N)c34)[nH]c12 [OSI-027] (partner 0.5 µM), with 0.409; and `CCCCCCCCCCCC1=C(O)C(=O)C=C(O)C1=O` [Embelin] + Nc1nc2[nH]cc(CCc3ccc(C(=O)N[C@@H](CCC(=O)O)C(=O)O)cc3)c2c(=O)[nH]1 [Pemetrexed] (partner 0.2 µM), with 0.975.

Staying with this experiment, now noted: first compound 0.8 µM.
For the compound `CCCCCCCCCCCC1=C(O)C(=O)C=C(O)C1=O` [Embelin] + N=C(N)NC(=N)NCCc1ccccc1 [Phenformin] (partner 250 µM), the relative viability worked out at 0.624.
Same read-out and setting: then `CCCCCCCCCCCC1=C(O)C(=O)C=C(O)C1=O` [Embelin] + CCNC(=O)c1noc(-c2cc(C(C)C)c(O)cc2O)c1-c1ccc(CN2CCOCC2)cc1 [Luminespib] (partner 0.01 µM), with 0.186.
Compound `CCCCCCCCCCCC1=C(O)C(=O)C=C(O)C1=O` [Embelin] + Cc1nc(Nc2ncc(C(=O)Nc3c(C)cccc3Cl)s2)cc(N2CCN(CCO)CC2)n1 [Dasatinib] (partner 0.075 µM) returned a relative viability of 0.191.
On the same count and under the same terms, then `CCCCCCCCCCCC1=C(O)C(=O)C=C(O)C1=O` [Embelin] + COc1cccc2cc(-c3nc([C@H]4CC[C@H](C(=O)O)CC4)n4ncnc(N)c34)[nH]c12 [OSI-027] (partner 0.5 µM), with 0.373.

(Values after the supplement of paper PMC10307832.)
